These results are taken from ChEMBL document CHEMBL1134810, “G-quadruplex DNA binding by a series of carbocyanine dyes” (Bioorg Med Chem Lett, 2001).

Assay [1] deals with DNA polymerase I, thermostable (Thermus aquaticus) (UniProt P19821). The assay can be described thus: G4'-DNA binding-dependent Taq polymerase pausing is the ratio of pause/full bands at 20 uM carbocyanine concentration relative to control; expressed as Normalized ratio of G4'-DNA stop product.
Assay [2] shares this target. The assay can be described thus: Taq polymerase inhibition at […] concentration. To be noted: 20 uM.
The target in assay [3] is Telomerase reverse transcriptase (Homo sapiens) (UniProt O14746). The assay can be described thus: Inhibition of human telomerase activity in S100 HeLa cell extract at […] carbocyanine concentration. Type of assay: cell-free.

Where only a bound is given, the exact number is not on record here.

Sequence of DNA polymerase I, thermostable (Thermus aquaticus) (P19821 whole entry): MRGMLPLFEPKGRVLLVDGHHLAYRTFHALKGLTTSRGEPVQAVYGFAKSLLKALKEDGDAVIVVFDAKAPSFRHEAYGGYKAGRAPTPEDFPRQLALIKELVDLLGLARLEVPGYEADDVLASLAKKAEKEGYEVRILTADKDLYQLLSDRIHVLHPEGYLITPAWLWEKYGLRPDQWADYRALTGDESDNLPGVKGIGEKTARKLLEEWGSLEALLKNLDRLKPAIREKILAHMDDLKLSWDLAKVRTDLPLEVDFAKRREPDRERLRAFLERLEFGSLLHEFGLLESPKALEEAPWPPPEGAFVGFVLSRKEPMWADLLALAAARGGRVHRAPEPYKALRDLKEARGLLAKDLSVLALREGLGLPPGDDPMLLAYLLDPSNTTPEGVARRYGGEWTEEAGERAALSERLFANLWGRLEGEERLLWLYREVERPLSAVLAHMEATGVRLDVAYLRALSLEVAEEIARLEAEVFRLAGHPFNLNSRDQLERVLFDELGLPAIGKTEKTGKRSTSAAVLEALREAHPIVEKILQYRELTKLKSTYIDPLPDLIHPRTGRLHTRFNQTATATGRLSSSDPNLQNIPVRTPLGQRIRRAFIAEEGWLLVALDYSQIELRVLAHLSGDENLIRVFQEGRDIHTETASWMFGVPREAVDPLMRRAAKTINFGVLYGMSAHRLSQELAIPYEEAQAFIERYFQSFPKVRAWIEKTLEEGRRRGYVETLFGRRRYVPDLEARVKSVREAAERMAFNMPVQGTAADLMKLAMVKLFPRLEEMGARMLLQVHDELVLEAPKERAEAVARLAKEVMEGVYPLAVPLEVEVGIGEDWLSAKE
Sequence of Telomerase reverse transcriptase (Homo sapiens) (O14746 whole entry): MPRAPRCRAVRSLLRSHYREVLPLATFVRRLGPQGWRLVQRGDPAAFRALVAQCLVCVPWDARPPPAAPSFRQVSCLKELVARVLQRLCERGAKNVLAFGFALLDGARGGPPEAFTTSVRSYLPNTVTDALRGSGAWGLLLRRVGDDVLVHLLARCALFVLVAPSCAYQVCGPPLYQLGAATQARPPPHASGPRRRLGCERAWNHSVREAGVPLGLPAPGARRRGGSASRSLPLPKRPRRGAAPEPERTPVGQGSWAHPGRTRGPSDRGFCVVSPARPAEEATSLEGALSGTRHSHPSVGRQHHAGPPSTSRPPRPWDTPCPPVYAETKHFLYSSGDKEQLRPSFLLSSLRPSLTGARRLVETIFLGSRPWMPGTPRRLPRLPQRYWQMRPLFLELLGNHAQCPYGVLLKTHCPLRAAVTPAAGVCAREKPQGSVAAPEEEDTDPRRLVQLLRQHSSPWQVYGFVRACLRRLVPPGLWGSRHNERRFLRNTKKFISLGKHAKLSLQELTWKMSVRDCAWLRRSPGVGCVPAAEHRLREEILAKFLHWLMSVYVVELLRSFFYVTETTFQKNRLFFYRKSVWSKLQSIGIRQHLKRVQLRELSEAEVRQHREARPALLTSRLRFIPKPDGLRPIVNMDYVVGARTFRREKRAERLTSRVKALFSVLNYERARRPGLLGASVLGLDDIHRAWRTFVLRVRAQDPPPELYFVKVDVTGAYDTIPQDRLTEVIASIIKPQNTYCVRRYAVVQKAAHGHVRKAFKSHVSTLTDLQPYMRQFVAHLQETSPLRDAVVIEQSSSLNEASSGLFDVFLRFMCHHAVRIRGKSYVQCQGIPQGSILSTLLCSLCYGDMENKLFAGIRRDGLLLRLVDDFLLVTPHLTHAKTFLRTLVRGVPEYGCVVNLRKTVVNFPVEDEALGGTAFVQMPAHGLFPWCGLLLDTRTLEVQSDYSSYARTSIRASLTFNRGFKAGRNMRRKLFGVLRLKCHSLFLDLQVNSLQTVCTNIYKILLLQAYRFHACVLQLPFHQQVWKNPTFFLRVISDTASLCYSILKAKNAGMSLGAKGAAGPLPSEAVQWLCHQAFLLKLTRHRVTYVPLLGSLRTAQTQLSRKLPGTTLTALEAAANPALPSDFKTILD

As for `CCN1/C(=C/C=C/C=C/C=C/c2sc3ccccc3[n+]2CC)Sc2ccccc21`, in assay [1], the Activity was determined as 1.1. Further, the inhibition is 1.1% in assay [2] and under 10% in assay [3].
For `CCN1C(=CC=CC=Cc2sc3ccccc3[n+]2CC)Sc2ccccc21`, the figures for the inhibition in assay [2] and in assay [3] were 91% and under 10%, respectively.
In the case of `CCN1/C(=C/C=C/c2oc3ccccc3[n+]2CC)Oc2ccccc21`, the Activity in assay [1] came out at 0.9. In addition, the inhibition is 15% in assay [2] and under 10% in assay [3].
Turning to `CCN1/C(=C/C=C/C=C/c2oc3ccccc3[n+]2CC)Oc2ccccc21`, in assay [1], the Activity worked out at 1.6. Further, the inhibition in assay [2] is 27%; in assay [3], under 10%.
In the case of `CCN1/C(=C/C=C/c2sc3ccccc3[n+]2CC)Sc2ccccc21`, the Activity in assay [1] worked out at 4.4. The figures for the inhibition in assay [2] and in assay [3] were 14% and 35%, respectively.

As usually defined, the inhibition is the share of the control response that was lost under treatment. Low values mean a response near the control, high ones a response far below the control.
